For one data set, the system named is seedlings of A. hybridus. Nature of the data set: Early post-emergence damage to photosystem II (Fv/Fm fluorometry). The data set is classed as in vivo, Amaranthus hybridus. The following applies: 5 mM. The procedure: • Plant material and culturing conditions Seeds of Amaranthus hybridus were sown on plastic boxes of 15.5×11×4 cm with moist absorbing paper (25 seeds per box). The boxes were placed in a culture chamber at 22° C. and 50 μmol photons m^−2 s^−1 with a photoperiod of 16 hours. […] The application volume for each treatment was 10 ml per box on the absorbing paper. After 7 days post-application, to avoid possible chlorosis symptoms due to a lack of nutrients, 5 ml of nutritive solution were added to each box, with the following formulation: 5.0 mM Ca(NO3)2, 5.0 mM KNO3, 2.0 mM MgSO4, 1.0 mM KH2PO4, 20.0 μM FeNaEDTA, 5.0 μM H3BO3, 0.9 μM MnCl2, 0.8 μM ZnCl2, 0.3 μM CuSO4 y 0.01 μM Na2MoO4, pH 5.5-6.5. The experiments were finished 12 days post-application.
The tested formulations were F1 and F2, both at 5 mM. […]
The objective was to assess the early post-emergence effect of the tested formulations on seedlings of A. hybridus of 7 days post-sowing. At 1, 2, 5, 7 and 12 days post-application the fluorometry measurements (Fv/Fm) were carried out to ascertain the damage to photosystem II, and the plants with bleaching or chlorosis symptoms were counted. […]
For the experiments, three boxes per treatment were used: both experiments had 5 treatments. Each experiment was repeated 3 times (assays 1, 2 and 3), and each assay was analyzed separately. […]

In the next data set the test system is Amaranthus hybridus. Nature of the data set: Pre-emergence germination assay in Petri dishes. It is filed as in vivo. The following applies: 168 h, A. hybridus, after 7 days of exposure, combined concentration of both active ingredients, read-out: Germination IC50 (Confidence limit 95%). The procedure:
(§1) Aqueous extracts containing binary mixtures of formulations: F1 (citral+pelargonic acid) and F2 (thymoquinone+pelargonic acid), in both cases with a 1:1 ratio between the active compounds and with the addition of an emulsifier (soy lecithin at 35% w/w, YPF Agro, 2022) at 0.2% v/v, were tested in Petri dishes following the methodology disclosed in U.S. Pat. No. 11,083,197, with some modifications. […] The extracts were placed onto 9-cm diameter paper disks in Petri dishes. Then, ten seeds of each species were placed onto paper disks. Subsequently, the dishes were closed under the following experimental conditions: room temperature, 26.0±1.8° C.; relative humidity, 50±9.7%; and photoperiod, 12:12. The seeds were considered germinated if their roots were longer than 1 mm. Aqueous extracts without the addition of the bioactive formulation were used as negative control, whereas atrazine was used as positive control. The assays were performed in triplicates for each concentration.
(§2) The IC50 were obtained using the software POLO PLUS (LeOra Software Company).
(§3) An aqueous extract comprising the emulsifier used in Example 1 at 0.2% w/w was prepared and seeds of different species were exposed to the extract following a methodology as the one used in Example 1. Pure water was used as a negative control.

The test system of a further data set is Lolium multiflorum. Put plainly: Pre-emergence germination assay in Petri dishes. It is filed as in vivo. The following applies: 168 h, L. multiflorum, after 7 days of exposure, combined concentration of both active ingredients, read-out: Germination IC50 (Confidence limit 95%). The procedure: as §1, §2, §3
The test system of another data set is Solanum lycopersicum. Put plainly: Pre-emergence germination assay in Petri dishes. The data set is classed as in vivo. The following applies: 168 h, S. lycopersicum, after 7 days of exposure, combined concentration of both active ingredients, read-out: Germination IC50 (Confidence limit 95%). The procedure: as §1, §2, §3
For the next data set, the system named is Pseudomonas monteilii. Nature of the data set: Effect on growth-promoting bacteria in liquid culture. It is filed as cell-based. The following applies: C + N 5 mM combined; F3, F4, F5 0.5% v/v; atrazine 5 mM; LB medium, 32° C.; Gompertz model. The procedure:
To evaluate the effect of the compositions prepared in Example 6 on growth-promoting bacteria, a model strain of Pseudomonas monteilii was used. The microorganism was inoculated in liquid LB medium (initial optical density at 600 nm=0.1), and incubated in Erlenmeyer flasks at 32° C., 180 rpm. The effect of the active compounds (citral (C)+pelargonic acid (N), at a combined concentration of 5 mM), F3, F4 and F5 (all three at 0.5% v/v) and atrazine (5 mM) was assessed by adding each treatment to the culture medium at the moment of inoculation. The positive growth control was performed without adding any compound. Liquid samples were taken during the growth, and the biomass of the cultures was evaluated using the drop plate method described by Herigstad et al. (2001). Three repetitions were carried out in different times and the results were analyzed with the software Statistica (StatSoft, 2007) to adjust them to the Gompertz model, and thus calculate the growth parameters.

The text below walks through data of patent US20240415120A1, “BINARY BIOHERBICIDE COMPRISING PELARGONIC ACID” (YPF TECNOLOGÍA S.A., priority 2023, published 2024).

Structures are written as SMILES.

Turning to `CCNc1nc(Cl)nc(NC(C)C)n1` [Atrazine, atrazine], in the data set on seedlings of A. hybridus (day 1 to 12 days post-application), the “Course of Fv/Fm values” is given as “gradual fall in the Fv/Fm values from day 1 until reaching minimum or non-measurable values at 12 days”. For the same compound, the “Effects on photosystem II in comparison to treatments F1 and F2” value in the data set on seedlings of A. hybridus (every assay) is recorded as “lower effects”. In the data set on Amaranthus hybridus, the IC50 (commonly the concentration that gives 50% inhibition) was determined as 41 mM. Besides, the IC50 with Lolium multiflorum came to 39 mM. Further, the IC50 with Solanum lycopersicum stood at 37.5 mM. Also, in the data set with Pseudomonas monteilii, the Duplication time came to 22.03 min, the Lag pase length stood at 1.3 h and the “maximum growth rate μmax” value is 1.89 h⁻¹.
